Legend:
MCF7 [1] = format: cell-based; conditions: MCF7, Breast Cancer
HCC-2998 = assay: NCI 60 Cell One-Dose Screen; format: cell-based, human; conditions: HCC-2998, Colon Cancer; single dose 10^-5 M
SK-OV-3 [2] = format: cell-based; conditions: SK-OV-3, Ovarian Cancer
MOLT-4 = format: cell-based; conditions: MOLT-4, Leukemia
HL-60(TB) = format: cell-based
BT-549 = format: cell-based; conditions: BT-549, Breast Cancer
SN12C = format: cell-based; conditions: Renal Cancer
LOX IMVI = format: cell-based; conditions: Melanoma
S. aureus GlyRS = S. aureus GlyRS (UniProt Q2FY08); conditions: read-out: IC50 (the inhibitor concentration at which GlyRS activity is reduced by half); cited from earlier work
IGROV1 = format: cell-based; conditions: IGROV1, Ovarian Cancer
SR [3] = assay: NCI 60 Cell One-Dose Screen; format: cell-based, human; conditions: Leukemia, single dose 10^-5 M
PC-3 [4] = format: cell-based; conditions: PC-3, Prostate Cancer
MDA-MB-231/ATCC = format: cell-based; conditions: Breast Cancer
NCI-H23 = format: cell-based; conditions: NCI-H23, Non-Small Cell Lung Cancer
HCT-116 [5] = format: cell-based; conditions: HCT-116, Colon Cancer
UO-31 = format: cell-based; conditions: UO-31, Renal Cancer
K-562 = assay: NCI 60 Cell One-Dose Screen; format: cell-based, human; conditions: K-562, Leukemia; single dose 10^-5 M
MCF7 [6] = assay: NCI 60 Cell One-Dose Screen; format: cell-based, human; conditions: MCF7, Breast Cancer; single dose 10^-5 M
[7] = mouse, in vivo
Description: (§1) GlySA (DMSO stock solution diluted by saline) were administrated to three month old female BALB CJ mice via tail vein injections. […] The GlySA concentration tested were 0.4 mg/kg (10 μM), 2.0 mg/kg (50 μM), 4.0 mg/kg (100 μM). N=3 for each group.
as §1, with “Animal experiments were also performed to study the use of GlySA to treat cancer. A maximum tolerant dosage assay of GlySA was conducted. GlySA (DMSO” for “GlySA (DMSO”

PC-3 [8] = assay: NCI 60 Cell One-Dose Screen; format: cell-based, human; conditions: PC-3, Prostate Cancer; single dose 10^-5 M
MALME-3M = format: cell-based; conditions: Melanoma
NCI/ADR-RES [9] = assay: NCI 60 Cell One-Dose Screen; format: cell-based, human; conditions: Ovarian Cancer, single dose 10^-5 M
SR [10] = format: cell-based; conditions: Leukemia
OVCAR-4 = format: cell-based; conditions: OVCAR-4, Ovarian Cancer
HOP-92 = format: cell-based; conditions: HOP-92, Non-Small Cell Lung Cancer
COLO 205 = format: cell-based; conditions: COLO 205, Colon Cancer
NCI/ADR-RES [11] = format: cell-based; conditions: Ovarian Cancer
SK-OV-3 [12] = assay: NCI 60 Cell One-Dose Screen; format: cell-based, human; conditions: SK-OV-3, Ovarian Cancer; single dose 10^-5 M
HCT-116 [13] = assay: NCI 60 Cell One-Dose Screen; format: cell-based, human; conditions: HCT-116, Colon Cancer; single dose 10^-5 M
[14] = Homo sapiens, read-out: LC50 (the source's name)

NCC(=O)NS(=O)(=O)OC[C@H]1O[C@@H](n2cnc3c(N)ncnc32)[C@H](O)[C@@H]1O [GlySA, glycylsulfamoyladenosine]
GI50 (MCF7 [1]; Homo sapiens): 2.82 µM
CC50 (MCF7 [1]; [14]): > 100 µM
LC50/GI50 (MCF7 [1]): >35.5
Growth inhibition count (%) (HCC-2998): 41.35%
GI50 (SK-OV-3 [2]; Homo sapiens): 2.88 µM
CC50 (SK-OV-3 [2]; [14]): 37.1 µM
LC50/GI50 (SK-OV-3 [2]): 12.9
GI50 (MOLT-4; Homo sapiens): 2.63 µM
CC50 (MOLT-4; [14]): > 100 µM
LC50/GI50 (MOLT-4): >38.0
LC50/GI50 (HL-60(TB); HL-60(TB), Leukemia): >36.3
GI50 (HL-60(TB); Homo sapiens, HL-60): 2.75 µM
LC50/GI50 (BT-549): 10.7
GI50 (BT-549; Homo sapiens): 2.34 µM
GI50 (SN12C; Homo sapiens): 0.562 µM
CC50 (SN12C; [14]): 95.5 µM
LC50/GI50 (SN12C): 169.8
GI50 (LOX IMVI; Homo sapiens): 1.7 µM
CC50 (LOX IMVI; [14]): 7.41 µM
LC50/GI50 (LOX IMVI): 4.4
IC50 (S. aureus GlyRS): ~2400 µM
GI50 (IGROV1; Homo sapiens, IGROV-1): 3.02 µM
CC50 (IGROV1; Homo sapiens, IGROV-1, read-out: LC50 (the source's name)): 47.9 µM
LC50/GI50 (IGROV1): 15.8
Growth inhibition count (%) (SR [3]): 9.926%
GI50 (PC-3 [4]; Homo sapiens): 2.63 µM
CC50 (PC-3 [4]; [14]): 56.2 µM
LC50/GI50 (PC-3 [4]): 21.4
LC50/GI50 (MDA-MB-231/ATCC): 34.7
GI50 (MDA-MB-231/ATCC; Homo sapiens): 0.525 µM
CC50 (MDA-MB-231/ATCC; [14]): 18.2 µM
GI50 (NCI-H23; Homo sapiens): 2.57 µM
CC50 (NCI-H23; [14]): > 100 µM
LC50/GI50 (NCI-H23): >38.9
LC50/GI50 (HCT-116 [5]): >31.6
GI50 (HCT-116 [5]; Homo sapiens): 3.16 µM
CC50 (HCT-116 [5]; [14]): > 100 µM
GI50 (UO-31; Homo sapiens): 1.7 µM
CC50 (UO-31; [14]): 6.17 µM
LC50/GI50 (UO-31): 3.6
Growth inhibition count (%) (K-562): 7.376%
Growth inhibition count (%) (MCF7 [6]): 8.271%
survival of mice after four injections [7]: all were alive
Growth inhibition count (%) (PC-3 [8]): 9.662%
GI50 (MALME-3M; Homo sapiens): 1.91 µM
CC50 (MALME-3M; [14]): 7.76 µM
LC50/GI50 (MALME-3M): 4.1
Growth inhibition count (%) (NCI/ADR-RES [9]): 2.073%
GI50 (SR [10]; Homo sapiens): 0.933 µM
CC50 (SR [10]; [14]): > 100 µM
LC50/GI50 (SR [10]): >107.2
GI50 (OVCAR-4; Homo sapiens): 0.389 µM
CC50 (OVCAR-4; [14]): 24 µM
LC50/GI50 (OVCAR-4): 61.7
LC50/GI50 (HOP-92): 9.3
GI50 (HOP-92; Homo sapiens): 2.95 µM
CC50 (HOP-92; [14]): 27.5 µM
LC50/GI50 (COLO 205): 28.2
GI50 (COLO 205; Homo sapiens): 2.29 µM
CC50 (COLO 205; [14]): 64.6 µM
GI50 (NCI/ADR-RES [11]; Homo sapiens): 2.51 µM
CC50 (NCI/ADR-RES [11]; [14]): > 100 µM
LC50/GI50 (NCI/ADR-RES [11]): >39.8
Growth inhibition count (%) (SK-OV-3 [12]): 6.281%
Growth inhibition count (%) (HCT-116 [13]): 6.566%

Source: patent US20190381086A1, “INHIBITION OF NEDDYLATION USING GLYCYL-tRNA SYNTHETASE INHIBITORS” (The Scripps Research Institute, priority 2015, published 2019)
